We go through 43 compounds from the Deep4Chem optical property database.

The nature of this series: solvent given as SMILES.

`CC1=C(C#Cc2ccc([Si](c3ccccc3)(c3ccccc3)c3ccccc3)cc2)C(C)=[N+]2C1=C(c1ccccc1)c1c(C)c(C#Cc3ccc([Si](c4ccccc4)(c4ccccc4)c4ccccc4)cc3)c(C)n1[B-]2(F)F` displayed an emission maximum (in ClCCl) of 600 nm.

`CC[N+]1(CC)CN2C(=N1)C(C(=O)O)=Cc1cc(Oc3ccccc3)ccc12` returned an emission maximum (in O) of 485 nm.

For the compound `CCN(CC)c1ccc(/C=N/c2cc3ccccc3cc2/N=C/c2ccc(N(CC)CC)cc2O)c(O)c1`, the emission maximum is, setting by setting: (in CC#N) 512 nm; (in CN(C)C=O) 516 nm; (in ClCCl) 539 nm.

For the compound `COc1ccc(OC)c(C(C)=O)c1`, the emission maximum (in CO) is reported as 449 nm.

`Cc1ccc(/C2=c3\cc/c(o3)=C(\c3ccc(C)cc3)c3ccc([nH]3)-c3ccc4n3[B-](F)(F)[N+]3=C(C=CC3=C4c3cccs3)c3ccc2[nH]3)cc1` had an emission maximum (in ClC(Cl)Cl) of 722 nm.

For `CCCCc1ccc2ccc3c(CCCC)cc(CCCC)c4ccc1c2c34`, the emission maximum reads like this: (in CCCCCC) 384 nm; (in CO) 384 nm; (in ClCCl) 385 nm.

Take `COc1cc(N(CC(=O)[O-])CC(=O)[O-])c2ncccc2c1`: the emission maximum (in O) stood at 487 nm.

`N#CC(C#N)=Cc1ccc2c(c1)c1ccccc1n2-c1cccc2ccccc12` displayed an emission maximum (in ClCCl) of 473 nm.

Compound `CCCCCCCCC1(CCCCCCCC)c2cc(-c3ccc([N+](=O)[O-])cc3)ccc2-c2ccc(-c3ccc([N+](=O)[O-])cc3)cc21` displayed an emission maximum (in CN(C)C=O) of 569 nm, an emission maximum (in CS(C)=O) of 589 nm and an emission maximum (in ClC(Cl)Cl) of 538 nm.

For the compound `CC(C)(C)c1cc2ccc3c(-c4ccc(N(c5ccccc5)c5ccccc5)cc4)ccc4c5nc6cc(C#N)c(C#N)cc6nc5c(c1)c2c34`, the emission maximum by setting is: (in C1CCOC1) 839.18 nm; (in CCCCCC) 575.31 nm; (in Cc1ccccc1) 613 nm; (in ClC(Cl)Cl) 784.69 nm; (in ClCCl) 839.18 nm.

As for `CN1CCc2cc(C3=Cc4cccc[n+]4[B-](F)(F)O3)ccc21`, where the note is “in ClC(Cl)Cl”, the emission maximum is 515 nm.

With `c1ccc(N(c2ccccc2)c2ccccc2)cc1`, for the setting “in CCO”, the emission maximum stood at 353 nm.

On to `CCCCCCCCOc1ccc(C2=C3C(C)=C(C#Cc4ccc(B(c5c(C)cc(C)cc5C)c5c(C)cc(C)cc5C)cc4)C(C)=[N+]3[B-](F)(F)n3c(C)c(C#Cc4ccc(B(c5c(C)cc(C)cc5C)c5c(C)cc(C)cc5C)cc4)c(C)c32)cc1`, for which the emission maximum (in CC#N) came to 598 nm, the emission maximum (in CCCCCC) is 604 nm and the emission maximum (in ClCCl) worked out at 602 nm.

Consider `COc1cc(C(=O)c2c(C)c3ccc4cccc5c6cccc7ccc2c(c76)c3c45)cc(OC)c1OC`, for which the emission maximum (in ClCCl) amounted to 456 nm.

On to `Cc1cc(C)c(C2=C3C=CC(c4cccc5ccccc45)=[N+]3[B-](F)(F)n3c2ccc3-c2cccc3ccccc23)c(C)c1`, for which the emission maximum (in ClC(Cl)Cl) is 601 nm.

`CC[N+]1(CC)CN2C(C)=CC(C)=C(C(=O)[O-])C2=N1`: the emission maximum runs as follows: (in CN(C)C=O) 453 nm; (in O) 449 nm.

Consider `CCN(CC)c1ccc2cc(C#N)/c(=N\C(=O)C(C)C)oc2c1`, for which the emission maximum came out at 470 nm (in CCO) and 460 nm (in ClCCl).

`COc1ccc2cc(C#Cc3ccc([N+](=O)[O-])cc3)ccc2c1` showed an emission maximum (in C1CCOC1) of 533 nm, an emission maximum (in ClC(Cl)Cl) of 592 nm and an emission maximum (in ClCCl) of 635 nm.

`COc1ccc(/C=C(\C)c2nc3ccccc3o2)cc1`: the emission maximum is, setting by setting: (in C1CCCCC1) 380 nm; (in CO) 400 nm.

For `CCOC(=O)c1cc(C(=O)OCC)c2cc(N(C)C)ccc2n1`, the emission maximum (in CCO) is 564 nm.

As to `c1ccc2c(c1)Cc1ccccc1N2c1c2ccccc2cc2ccccc12`, where the note is “in Cc1ccccc1”, the emission maximum is recorded as 535 nm.

On to `CCCCCCCCOc1ccc(C2=C(c3ccc(OCCCCCCCC)cc3)C(C)(C)c3ccccc32)cc1`, for which the emission maximum (in C1CCCCC1) was found to be 390 nm.

`N#CC1=CC(/C=C/c2ccccc2)=CC(C#N)=P1(c1ccccc1)c1ccccc1` registered an emission maximum (in ClC(Cl)Cl) of 581 nm.

`CC(C)[Si](C#Cc1c2nc3ccccc3nc2c(C#C[Si](C(C)C)(C(C)C)C(C)C)c2nc3ccccc3nc12)(C(C)C)C(C)C` yielded an emission maximum (in CCCCCC) of 694 nm.

Consider `CC(C)(C)c1ccc2c(c1)Sc1cc(C(C)(C)C)ccc1N2c1ccc2c(ccc3nc4ccc5cc(N6c7ccc(C(C)(C)C)cc7Sc7cc(C(C)(C)C)ccc76)ccc5c4nc32)c1`, for which the emission maximum by setting is: (in C1CCCCC1) 575 nm; (in Cc1ccccc1) 682 nm.

Take `c1cc2ccc3sc4ccc5cccc6c(c1)c2c3c4c56`: the emission maximum (in ClC(Cl)Cl) turned out to be 418 nm.

Consider `COC(=O)c1c(C(=O)OC)c2ccc(C)nn2c1C`, for which, under “in CCCCCC”, the emission maximum is 449 nm.

For the compound `CN(C)c1ccc(/C=C/c2ccc(C#N)cc2)cc1`, the emission maximum (in C1CCOC1) is listed as 499 nm; the emission maximum (in CC#N) turned out to be 530 nm; the emission maximum (in CCCC#N) turned out to be 522 nm; the emission maximum (in CCCCCC) amounted to 415 nm; the emission maximum (in CCCCOCCCC) was determined as 453 nm; the emission maximum (in CCO) came to 524 nm. The same compound came in with an emission maximum (in CCOCC) of 475 nm.

In turn, `Cc1ccc(N(c2ccc(C)cc2)c2ccc(-c3ccc(C=C(C#N)C#N)s3)cc2)cc1` yielded an emission maximum (in ClC(Cl)Cl) of 670 nm.

Consider `C(#Cc1cnc(C#Cc2ccccc2)nc1)c1ccccc1`, for which the emission maximum (in C1CCCCC1) is given as 425 nm.

In turn, `F[B-]1(F)OC(c2cccc(Br)c2)=Cc2c3ccccc3c3ccccc3[n+]21` registered an emission maximum (in ClC(Cl)Cl) of 446 nm.

For `Cc1ccc(C)c(C)c1`, the emission maximum (in C1CCCCC1) came to 295.77 nm.

As for `CN(C)c1ccc(/C=C/C=C2\CC/C(=C\c3ccc(N(C)C)cc3)C2=O)cc1`, the emission maximum (in C1CCOC1) worked out at 649 nm; the emission maximum (in CC#N) is recorded as 666 nm; the emission maximum (in CC(C)=O) is recorded as 650 nm; the emission maximum (in CC(C)O) was 687 nm; the emission maximum (in CCCCCC) was determined as 504 nm; the emission maximum (in CCCCO) is listed as 712 nm. Also, the emission maximum by setting is: (in CCCCOC(C)=O) 581 nm; (in CCCO) 717 nm; (in CCO) 725 nm; (in CCOC(=O)c1ccccc1) 604 nm; (in CCOC(C)=O) 591 nm; (in CCOCC) 546 nm. For the same compound, the emission maximum was found to be 656 nm (in CN(C)C=O); 737 nm (in CO); 676 nm (in CS(C)=O); 530 nm (in Cc1ccccc1); 515 nm (in ClC(Cl)(Cl)Cl); 623 nm (in ClC(Cl)Cl). In addition, the emission maximum (in ClCCl) turned out to be 635 nm; the emission maximum (in Clc1ccccc1Cl) came to 608 nm; the emission maximum (in S=C=S) is recorded as 540 nm; the emission maximum (in c1ccccc1) came out at 532 nm; the emission maximum (in c1ccncc1) is listed as 643 nm.

`CC(C)(C)c1ccc2c(c1)c1cc(C(C)(C)C)cc3c1n2-c1cc(-c2ccc(F)cc2)cc2c1B3c1cc(C(C)(C)C)cc3c4cc(C(C)(C)C)ccc4n-2c13` came in with an emission maximum (in Cc1ccccc1) of 496.94 nm.

Take `N#CC(C#N)=Cc1ccc2c(c1)[nH]c1c3ccccc3sc21`: the emission maximum reads like this: (in C1CCOC1) 547 nm; (in CN(C)C=O) 581 nm; (in Cc1ccccc1) 518 nm; (in ClCCl) 544 nm.

As to `Cc1ccccc1N(c1ccccc1C)c1ccc2ccc3c(N(c4ccccc4C)c4ccccc4C)ccc4ccc1c2c43`, the emission maximum (in Cc1ccccc1) is reported as 452 nm.

With `CCOC(=O)c1ccccc1-c1c2ccc(=[N+](CC)CC)cc-2oc2c1c(=O)oc1cc(N(CC)CC)ccc12`, the emission maximum is 642 nm (in CCO), 640 nm (in ClC(Cl)Cl) and 652 nm (in O).

`O=S(=O)([O-])c1cc(S(=O)(=O)Cl)ccc1C1=c2cc3c4c(c2Oc2c1cc1c5c2CCCN5CCC1)CCC[N+]=4CCC3`: the emission maximum (in O) turned out to be 615 nm.

Regarding `Cc1cc(-c2nc3c4ccccc4c4ccccc4c3n2-c2ccc(C(C)(C)C)cc2)ccc1-c1ccc(-c2c(-c3ccccc3)nc3ccccn23)cc1`, the emission maximum (in ClCCl) was 416 nm.

Turning to `CCCCC[n+]1ccc(/C=C/c2ccc(N(C)C)c3ccccc23)c2ccccc21`, the emission maximum turned out to be 697 nm (in C1CCOC1); 680 nm (in C1COCCO1); 720 nm (in CC#N); 714 nm (in CC(C)=O); 695 nm (in CCCCO); 670 nm (in CCO). Further, the emission maximum reads like this: (in CN(C)C=O) 721 nm; (in CO) 708 nm; (in CS(C)=O) 720 nm; (in O) 697 nm; (in c1ccccc1) 675 nm; (in c1ccncc1) 706 nm.

For the setting “in CCCCCC”, `CC(C)[Si](C#Cc1ccc(C#C[Si](C(C)C)(C(C)C)C(C)C)c2nc3c(nc12)Cc1ccccc1-3)(C(C)C)C(C)C` yielded an emission maximum of 430 nm.

Take `CC(C)(C)c1ccc2c(c1)c1cc(C(C)(C)C)ccc1n2-c1cccs1`: the emission maximum (in ClCCl) worked out at 368 nm.

For `CC(C)CCC[C@@H](C)[C@H]1CC[C@H]2[C@@H]3CC=C4C[C@@H](OC(=O)Oc5cc(/C=C/C=C/c6ccc(N(C)C)cc6)ccc5[N+](=O)[O-])CC[C@]4(C)[C@H]3CC[C@]12C`, the emission maximum runs as follows: (in C1CCCCC1) 505 nm; (in C1CCOC1) 677 nm; (in C1COCCO1) 620 nm; (in CCCCCCC) 502 nm; (in Cc1ccccc1) 595 nm.
